Data: patent publication US20250171431A1, “HETEROCYCLIC INHIBITORS OF IGF-1R FOR TREATMENT OF DISEASE” (HORIZON THERAPEUTICS IRELAND DAC, priority 2023, published 2025)

Target: IGF-1R (Homo sapiens (Human), UniProt P08069)
Experiment: Example B-1: IGF-1R Assay (PC3 cells, IGF1 stimulation, AlphaLISA)
Assay type: cell-based
Settings: 200 ng/mL IGF1 stimulation, read-out: Biological Activity against IGF-1R IC50
Protocol: 50K PC3 cells were seeded on day 1 in 50 μL of media in 96-well plate and incubated overnight at 37° C., 5% CO2. On day 2, all cells were expected to be at 80-90% confluency. Cells were starved for two hours by changing the media to 90 μL of EMEM serum-free media and incubated for 2 hours. Next, cells were treated with 10 μL of 10× concentrated and 3× serially diluted compounds for two hours. It makes 1× of compounds in 100 μL media. This was followed by stimulation of cells with 11×IGF1 for 30 min in 10 μL of serum-free EMEM media at the final concentration of 200 ng/mL.
The media was removed and replaced by 50 μL of 1× lysis buffer from the AlphaLISA kit (with 1× of cOmplete™ protease inhibitor). The plates were sealed, and cells were allowed to lyse for 10 min in the shaker before storing the plate at −20° C. until used. The AlphaLISA assay with processed cell lysates were performed as described in the protocol. Briefly, 10 μL of the undiluted sample were loaded to 384 well Optiplates and 5 μL of the acceptor mix (as described in the AlphaLISA kit) was added to each well. The plates were sealed and briefly vortexed followed by the incubation at RT for 3 hours. In the dark, 5 μL of donor mix was added to each well. All plates were sealed and stored at RT overnight. The plates were read in EnVision reader using standard AlphaLISA settings.
Compound activity was analyzed using CBIS data analysis suite (ChemInnovation, CA). Percentage inhibition was calculated using the following formula: % Inhibition=100%×(1−(mean RLU of test sample−mean RLU of vehicle control)/(mean RLU of EC80 control−mean RLU of vehicle control)). The activity for representative examples of the invention is shown in the following table, wherein A: IC50≤500 nM; B: 500 nM<IC50≤2 μM; C: 2 μM<IC50≤10 μM; D: IC50>10 μM.

IGF-1R, sequence (P08069 31-1367): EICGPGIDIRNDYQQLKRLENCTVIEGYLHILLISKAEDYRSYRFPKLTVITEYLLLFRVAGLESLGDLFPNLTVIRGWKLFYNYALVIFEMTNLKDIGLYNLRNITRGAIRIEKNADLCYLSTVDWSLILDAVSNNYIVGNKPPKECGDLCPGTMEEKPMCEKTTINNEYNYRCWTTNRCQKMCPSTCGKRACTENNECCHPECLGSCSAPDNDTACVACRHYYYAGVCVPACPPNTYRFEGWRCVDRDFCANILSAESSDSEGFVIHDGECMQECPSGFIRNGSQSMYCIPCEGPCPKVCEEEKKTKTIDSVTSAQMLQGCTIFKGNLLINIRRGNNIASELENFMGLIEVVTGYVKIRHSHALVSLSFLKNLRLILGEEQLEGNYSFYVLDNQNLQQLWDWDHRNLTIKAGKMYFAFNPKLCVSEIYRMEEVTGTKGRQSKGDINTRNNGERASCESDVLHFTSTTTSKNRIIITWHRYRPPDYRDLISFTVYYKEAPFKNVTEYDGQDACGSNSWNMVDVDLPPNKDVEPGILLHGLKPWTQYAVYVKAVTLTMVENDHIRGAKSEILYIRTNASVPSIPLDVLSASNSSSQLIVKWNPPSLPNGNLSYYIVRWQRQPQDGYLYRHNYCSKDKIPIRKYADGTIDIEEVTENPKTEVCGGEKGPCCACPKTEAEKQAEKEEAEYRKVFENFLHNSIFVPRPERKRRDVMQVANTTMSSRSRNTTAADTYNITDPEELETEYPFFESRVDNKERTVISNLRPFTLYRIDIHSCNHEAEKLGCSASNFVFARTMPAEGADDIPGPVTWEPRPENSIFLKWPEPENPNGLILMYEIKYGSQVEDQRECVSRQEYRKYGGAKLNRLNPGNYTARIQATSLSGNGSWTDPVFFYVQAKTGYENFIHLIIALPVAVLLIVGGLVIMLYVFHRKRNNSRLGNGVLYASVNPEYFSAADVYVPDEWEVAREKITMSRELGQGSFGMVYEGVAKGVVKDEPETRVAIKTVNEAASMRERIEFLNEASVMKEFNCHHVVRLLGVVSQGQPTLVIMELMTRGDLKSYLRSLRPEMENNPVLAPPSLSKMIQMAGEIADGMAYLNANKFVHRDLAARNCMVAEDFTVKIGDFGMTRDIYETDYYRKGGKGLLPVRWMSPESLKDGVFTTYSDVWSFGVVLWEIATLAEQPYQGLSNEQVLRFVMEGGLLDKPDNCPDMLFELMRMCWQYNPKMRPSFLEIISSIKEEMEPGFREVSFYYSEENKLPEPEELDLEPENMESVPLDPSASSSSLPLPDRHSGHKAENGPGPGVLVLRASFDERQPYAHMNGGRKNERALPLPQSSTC

## CN1CC(Oc2ccc(Nc3nccc(Nc4cnc5ccc(Cl)cc5c4)n3)cc2)C1 [Compound 294, 4-(6-chloro-3-quinolylamino)-2-[p-(1-methyl-3-azetidinyloxy)phenylamino] pyrimidine]
  IC50: 2000 to 10000 nM

## COc1cc(Nc2nccc(Nc3cnc4ccc(C)cc4c3)n2)ccc1OCCCN1CCCCC1 [Compound 429, 2-[3-methoxy-4-(3-piperidinopropoxy)phenylamino]-4-(6-methyl-3-quinolylamino)pyrimidine]
  IC50: ≤ 500 nM

## COc1cc(Nc2nccc(Nc3cc4cccc(F)c4[nH]c3=O)n2)cnc1N1CCNC(C(F)(F)F)C1 (stereo not drawn) [Compound 239, 8-fluoro-3-(2-{5-methoxy-6-[3-(trifluoromethyl)-1-piperazinyl]-3-pyridylamino}-4-pyrimidinylamino)-1,2-dihydro-2-quinolinone]
  IC50: ≤ 500 nM

## COc1ccc2cc(Nc3ccnc(Nc4ccc(O[C@H]5C[C@H]6COC[C@@H](C5)N6C)cc4)n3)cnc2c1 [Compound 346, 2-(p-{(1R,5S,7r)-9-methyl-3-oxa-9-azabicyclo[3.3.1]non-7-yloxy}phenylamino)-4-(7-methoxy-3-quinolylamino)pyrimidine]
  IC50: 500 to 2000 nM

## COc1cc(Nc2nccc(Nc3cnc4ccc(C(F)F)cc4c3)n2)cnc1O[C@H]1C[C@@H](N(C)C)C1 [Compound 163, 4-[6-(difluoromethyl)-3-quinolylamino]-2-{5-methoxy-6-[(1s,3s)-3-(dimethylamino)cyclobutoxy]-3-pyridylamino}pyrimidine]
  IC50: ≤ 500 nM

## COc1cc(Nc2nccc(Nc3cnc4ncc(Cl)cc4c3)n2)ccc1O[C@H]1C[C@@H](N(C)C)C1 [Compound 83, 4-(6-chloro-1,8-diaza-3-naphthylamino)-2-{3-methoxy-4-[(1s,3s)-3-(dimethylamino)cyclobutoxy]phenylamino}pyrimidine]
  IC50: ≤ 500 nM

## COc1nc(N2CCC(C)(O)CC2)ccc1Nc1nccc(Nc2cnc3ccc(Cl)cc3c2)n1 [Compound 489, 1-{5-[4-(6-chloro-3-quinolylamino)-2-pyrimidinylamino]-6-methoxy-2-pyridyl}-4-methyl-4-piperidinol]
  IC50: ≤ 500 nM

## CN(C)CC1COc2cc(Nc3nccc(Nc4cc5cccc(F)c5[nH]c4=O)n3)ccc2O1 (stereo not drawn) [Compound 205, 3-(2-{2-[(dimethylamino)methyl]-2,3-dihydro-1,4-benzodioxin-6-ylamino}-4-pyrimidinylamino)-8-fluoro-1,2-dihydro-2-quinolinone]
  IC50: ≤ 500 nM

## Clc1ccc2cc(Nc3ccnc(Nc4ccc(OCCCN5CCOCC5)cc4)n3)cnc2c1 [Compound 410, 4-(7-chloro-3-quinolylamino)-2-[p-(3-morpholinopropoxy)phenylamino]pyrimidine]
  IC50: 2000 to 10000 nM

## CS(=O)(=O)c1ccc2ncc(Nc3ccnc(Nc4ccc(OCCCN5CCOCC5)cc4)n3)cc2c1 [Compound 411, 4-(6-mesyl-3-quinolylamino)-2-[p-(3-morpholinopropoxy)phenylamino]pyrimidine]
  IC50: 2000 to 10000 nM

## COc1cc(Nc2nccc(Nc3cnc4c(c3)CCCC43CCCC3)n2)ccc1OCCCN1CCCCC1 [Compound 370, 4-(6′,7′-dihydro-5′H-spiro[cyclopentane-1,8′-quinolin]-3′-ylamino)-2-[3-methoxy-4-(3-piperidinopropoxy)phenylamino] pyrimidine]
  IC50: ≤ 500 nM

## COc1cc(Nc2nccc(Nc3cnc4c(=O)n(C)ncc4c3)n2)ccc1O[C@H]1C[C@@H](N(C)C)C1 [Compound 304, 3-(2-{3-methoxy-4-[(1s,3s)-3-(dimethylamino)cyclobutoxy]phenylamino}-4-pyrimidinylamino)-7-methyl-1,6,7-triaza-8(7H)-naphthalenone]
  IC50: > 10000 nM

## COc1nc(N2CCC(O)(C(F)(F)F)CC2)ccc1Nc1nccc(Nc2cc3cccc(F)c3[nH]c2=O)n1 [Compound 227, 8-fluoro-3-(2-{6-[4-hydroxy-4-(trifluoromethyl)-1-piperidyl]-2-methoxy-3-pyridylamino}-4-pyrimidinylamino)-1,2-dihydro-2-quinolinone]
  IC50: ≤ 500 nM

## c1ccc2ncc(Nc3ccnc(Nc4ccc(OCCCN5CCCCC5)c(OCC5CC5)c4)n3)cc2c1 [Compound 425, 2-[3-(cyclopropylmethoxy)-4-(3-piperidinopropoxy)phenylamino]-4-(3-quinolylamino)pyrimidine]
  IC50: ≤ 500 nM

## COc1cc(Nc2nccc(Nc3cnc4c(c3)C3CCC(C4)O3)n2)ccc1OCCCN1CCCCC1 (stereo not drawn) [Compound 60, 2-[3-methoxy-4-(3-piperidinopropoxy)phenylamino]-4-{12-oxa-6-azatricyclo[7.2.1.0^2,7]dodeca-2(7),3,5-trien-4-ylamino}pyrimidine]
  IC50: 500 to 2000 nM

## COc1cc(Nc2nccc(Nc3cnc4c(F)cc(Cl)cc4c3)n2)ccc1O[C@H]1C[C@@H](N(C)C)C1 [Compound 114, 4-(6-chloro-8-fluoro-3-quinolylamino)-2-{3-methoxy-4-[(1s,3s)-3-(dimethylamino)cyclobutoxy]phenylamino}pyrimidine]
  IC50: ≤ 500 nM

## COc1cc(Nc2nccc(Nc3cnc4ccccc4c3)n2)ccc1O[C@H]1CC[C@@H](N2CCOCC2)CC1 [Compound 18, 2-{3-methoxy-4-[(1s,4s)-4-morpholinocyclohexyloxy]phenylamino}-4-(3-quinolylamino)pyrimidine]
  IC50: ≤ 500 nM

## COc1cc(Nc2nccc(Nc3cc4ccc(F)c(F)c4[nH]c3=O)n2)ccc1O[C@H]1C[C@@H](N(C)C)C1 [Compound 117, 7,8-difluoro-3-(2-{3-methoxy-4-[(1s,3s)-3-(dimethylamino)cyclobutoxy]phenyl-amino}-4-pyrimidinylamino)-1,2-dihydro-2-quinolinone]
  IC50: ≤ 500 nM

## COc1cc(Nc2nccc(Nc3cnc4cc(F)c(F)cc4c3)n2)cnc1N1CCOCC1 [Compound 469, 4-(6,7-difluoro-3-quinolylamino)-2-(5-methoxy-6-morpholino-3-pyridylamino)pyrimidine]
  IC50: ≤ 500 nM

## COc1cc(Nc2nccc(Nc3cnc4cc(Br)cnc4c3)n2)ccc1O[C@H]1C[C@@H](N(C)C)C1 [Compound 316, 4-(7-bromo-1,5-diaza-3-naphthylamino)-2-{3-methoxy-4-[(1s,3s)-3-(dimethylamino)cyclobutoxy]phenylamino}pyrimidine]
  IC50: ≤ 500 nM

## COc1cc(Nc2nccc(Nc3cnc4c(c3)CC3(CCCC3)CC4)n2)ccc1O[C@H]1C[C@H](N(C)C)C1 [Compound 79, 4-(7′,8′-dihydro-5′H-spiro[cyclopentane-1,6′-quinolin]-3′-ylamino)-2-{3-methoxy-4-[(1r,3r)-3-(dimethylamino)cyclobutoxy]phenylamino}pyrimidine]
  IC50: ≤ 500 nM

## COc1ccc2cc(Nc3ccnc(Nc4ccc(O[C@H]5C[C@@H](N6CCOCC6)C5)cc4)n3)cnc2c1 [Compound 352, 4-(7-methoxy-3-quinolylamino)-2-{p-[(1s,3s)-3-morpholinocyclobutoxy]phenylamino}pyrimidine]
  IC50: 2000 to 10000 nM

## COc1cc(Nc2nccc(Nc3ccc4c(c3)OCCO4)n2)ccc1OCCCN1CCCCC1 [Compound 376, 4-(2,3-dihydro-1,4-benzodioxin-6-ylamino)-2-[3-methoxy-4-(3-piperidinopropoxy)phenylamino]pyrimidine]
  IC50: ≤ 500 nM

## COc1cc(Nc2nccc(Nc3cnc4cc(F)c(F)cc4c3)n2)cnc1N1CCN(C)C(C)(C)C1 [Compound 484, 4-(6,7-difluoro-3-quinolylamino)-2-[6-(3,3-dimethyl-4-methyl-1-piperazinyl)-5-methoxy-3-pyridylamino]pyrimidine]
  IC50: ≤ 500 nM

## COc1cc(Nc2ncc(F)c(Nc3cnc4ccccc4c3)n2)ccc1OCCCN1CCCCC1 [Compound 431, 5-fluoro-2-[3-methoxy-4-(3-piperidinopropoxy)phenylamino]-4-(3-quinolylamino)pyrimidine]
  IC50: ≤ 500 nM

## CN(C)[C@H]1C[C@@H](Oc2ccc(Nc3nccc(Nc4cnc5ccccc5c4)n3)cc2)C1 [Compound 367, 4-(3-quinolylamino)-2-{p-[(1s,3s)-3-(dimethylamino)cyclobutoxy]phenylamino}pyrimidine]
  IC50: ≤ 500 nM

## COc1cc(Nc2nccc(Nc3cc(F)c4ncccc4c3)n2)ccc1OCCCN1CCCCC1 [Compound 447, 4-(8-fluoro-6-quinolylamino)-2-[3-methoxy-4-(3-piperidinopropoxy)phenylamino] pyrimidine]
  IC50: ≤ 500 nM

## COc1cc(Nc2nccc(Nc3cnc4cc(F)c(F)cc4c3)n2)cnc1N1CCN(CC#N)CC1 [Compound 49]
  IC50: ≤ 500 nM

## COc1cc(Nc2nccc(Nc3cnc4ccc(C#N)cc4c3)n2)ccc1O[C@H]1C[C@@H](N(C)C)C1 [Compound 313, 3-(2-{3-methoxy-4-[(1s,3s)-3-(dimethylamino)cyclobutoxy]phenylamino}-4-pyrimidinylamino)-6-quinolinecarbonitrile]
  IC50: ≤ 500 nM

## COc1nc(N2CCN(C)CC2)ccc1Nc1nccc(Nc2cnc3ccc(Cl)cc3c2)n1 [Compound 485, 4-(6-chloro-3-quinolylamino)-2-[2-methoxy-6-(4-methyl-1-piperazinyl)-3-pyridylamino]pyrimidine]
  IC50: ≤ 500 nM
